Experimental data as given in the supplement of paper PMC10307832.

What was measured:
Assay in all cases: relative viability (nuclei count vs DMSO), 5 days (fraction); higher = more cells survive
[1] = compound: O=c1ncccn1[C@@H]1O[C@H](CO)[C@@H](O)[C@H]1O [Zebularine] + NC(=O)Nc1cc(-c2cccc(F)c2)sc1C(=O)N[C@H]1CCCNC1 [AZD7762] (partner 0.2 µM)
Summary of the method: (§1)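 Dosing by pin tool came one day after lung cancer cell lines were seeded in 1536-well plates, using either one drug or a fixed anchor-drug dose plus five library-drug doses (not always all listed) in √10 steps. After 5 days, nuclei were counted on 4× images. Relative viability is treated-well nuclei count divided by vehicle-well nuclei count, and values are medians of duplicate plates.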

[2] = compound: O=c1ncccn1[C@@H]1O[C@H](CO)[C@@H](O)[C@H]1O [Zebularine] + CCNC(=O)c1noc(-c2cc(C(C)C)c(O)cc2O)c1-c1ccc(CN2CCOCC2)cc1 [Luminespib] (partner 0.01 µM)
Summary of the method: as §1

[3] = compound: CC(C)CCN1c2nc(Nc3cc(F)c(O)c(F)c3)ncc2N(C)C(=O)C1C [BI-D1870] + COc1cccc2cc(-c3nc([C@H]4CC[C@H](C(=O)O)CC4)n4ncnc(N)c34)[nH]c12 [OSI-027] (partner 0.5 µM)
Summary of the method: as §1

[4] = compound: O=c1ncccn1[C@@H]1O[C@H](CO)[C@@H](O)[C@H]1O [Zebularine] + CS(=O)(=O)CCNCc1ccc(-c2ccc3ncnc(Nc4ccc(OCc5cccc(F)c5)c(Cl)c4)c3c2)o1 [Lapatinib] (partner 2 µM)
Summary of the method: as §1

Cell Line	relative viability ([1]; first compound 1 µM)	relative viability ([1]; first compound 3.162 µM)	relative viability ([1]; first compound 10 µM)	relative viability ([1]; first compound 31.62 µM)	relative viability ([1]; first compound 100 µM)	relative viability ([2]; first compound 1 µM)	relative viability ([2]; first compound 3.162 µM)	relative viability ([2]; first compound 10 µM)	relative viability ([2]; first compound 31.62 µM)	relative viability ([2]; first compound 100 µM)	relative viability ([3]; first compound 0.04 µM)	relative viability ([3]; first compound 0.1265 µM)	relative viability ([3]; first compound 0.4 µM)	relative viability ([3]; first compound 1.265 µM)	relative viability ([3]; first compound 4 µM)	relative viability ([4]; first compound 1 µM)	relative viability ([4]; first compound 3.162 µM)	relative viability ([4]; first compound 10 µM)	relative viability ([4]; first compound 31.62 µM)	relative viability ([4]; first compound 100 µM)
LC-2-ad	0.907	0.888	0.525	0.812	0.357	1.02	1.01	0.699	0.73	0.541	0.93	0.861	0.824	0.867	0.802	1.05	0.886	0.722	0.584	0.168
LCLC-97TM1	0.127	0.216	0.142	0.134	0.13	0.806	0.777	0.427	0.241	0.21	0.682	0.61	0.557	0.727	0.472	0.784	0.665	0.451	0.376	0.139
LK-2	0.492	0.382	0.49	0.23	0.16	0.17	0.176	0.213	0.182	0.176	0.21	0.259	0.198	0.197	0.148	0.947	1.04	0.584	0.539	0.283
LOU-NH91	0.522	0.751	0.568	0.743	0.627	0.332	0.33	0.479	0.298	0.3	0.797	0.701	0.7	0.75	0.57	0.715	0.731	0.712	0.705	0.606
LU99A	0.348	0.28	0.267	0.24	0.115	0.221	0.269	0.166	0.188	0.146	0.295	0.265	0.288	0.308	0.287	1.14	0.838	0.615	0.421	0.176
LXF-289	1.07	1.16	1.11	0.699	0.281	0.729	0.75	0.444	0.382	0.202	0.796	0.74	0.746	0.807	0.776	0.986	0.92	0.818	0.783	0.271
NCI-H23	0.3	0.375		0.23	0.254	0.217	0.221	0.21	0.211	0.199	0.782	0.525	0.463	0.547	0.344	1.15	1.12		1.21	0.756
NCI-H322M	0.555	0.606	0.572	0.522	0.528	0.905	0.992	0.707	0.703	0.662	0.579	0.511	0.38	0.444	0.494	0.608	0.589	0.586	0.601	0.576
NCI-H358	0.591	0.386	0.484	0.451	0.333	0.355	0.462	0.251	0.269	0.184	0.825	0.65	0.687	0.728	0.344	0.48	0.401	0.44	0.467	0.303
NCI-H460	0.781	0.716	0.294	0.434	0.126	0.0314	0.0246	0.0322	0.0331	0.0289	0.825	0.504	0.43	0.442	0.185	1.05	0.897	0.255	0.294	0.0468
NCI-H596	1.23	1.09	0.843	1.01	1.07	0.897	0.914	0.662	1.13	0.715	0.797	0.704	0.95	0.572	0.5	1.19	1.11	0.759	1.18	1
NCI-H647	0.814	0.445	0.256	0.259	0.211	0.242	0.173	0.141	0.0957	0.0958	0.657	0.519	0.664	0.855	0.53	1.35	1.03	0.227	0.212	0.14
NCI-H650	1.03	1.04	0.908	0.551	0.317	0.776	0.742	0.595	0.355	0.224	0.538	0.427	0.509	0.471	0.446	1.32	0.805	0.496	0.565	0.276
NCI-H727	0.785	0.703	0.606	0.646	0.574	0.382			1.01	0.272	0.559	0.518	0.646	1.01	0.517	0.724	0.797	0.65	0.948	0.772
NCI-H838	0.934	0.977	0.764	0.861	0.738	0.299	0.312	0.276	0.243	0.228	0.378	0.352	0.349	0.47	0.462	1.19	1.14	0.632	0.834	0.382
NCI-H1355	0.722	0.8	0.543	0.588	0.338	0.93	0.654	0.595	0.452	0.29	0.464	0.36	0.361	0.425	0.308	1.31	0.851	0.854	0.681	0.357

Cell Line	relative viability ([1]; first compound 1 µM)	relative viability ([1]; first compound 3.162 µM)	relative viability ([1]; first compound 10 µM)	relative viability ([1]; first compound 31.62 µM)	relative viability ([1]; first compound 100 µM)	relative viability ([2]; first compound 1 µM)	relative viability ([2]; first compound 3.162 µM)	relative viability ([2]; first compound 10 µM)	relative viability ([2]; first compound 31.62 µM)	relative viability ([2]; first compound 100 µM)	relative viability ([3]; first compound 0.04 µM)	relative viability ([3]; first compound 0.1265 µM)	relative viability ([3]; first compound 0.4 µM)	relative viability ([3]; first compound 1.265 µM)	relative viability ([3]; first compound 4 µM)	relative viability ([4]; first compound 1 µM)	relative viability ([4]; first compound 3.162 µM)	relative viability ([4]; first compound 10 µM)	relative viability ([4]; first compound 31.62 µM)	relative viability ([4]; first compound 100 µM)
NCI-H1395	0.402	0.372	0.397	0.37	0.435	0.564	0.666	0.456	0.536	0.372	0.717	0.639	0.658	0.616	0.593	1.27	1.04	0.799	0.702	0.507
NCI-H1437	1.16	1.21	0.947	1.16	0.914	1.22	1.23	0.956	1.16	0.59	0.924	0.788	0.807	0.941	0.786	0.925	0.934		0.787	0.333
NCI-H1651	0.506	0.486	0.445	0.466	0.294	0.986	0.831	0.688	0.738	0.519	0.738	0.608	0.668	0.753	0.63	0.917	1.07		0.94	0.515
NCI-H1666	0.91	0.841	0.726	0.916	0.654	1.01	0.932	0.966	1.01	0.751	0.943	0.808	0.849	0.89	0.807	0.561	0.57	0.49	0.667	0.593
NCI-H1734	0.638	0.575	0.366	0.495	0.306	0.197	0.171	0.185	0.217	0.178	0.569	0.541	0.567	0.629	0.472	1.05	1.01	0.452	0.5	0.493
NCI-H1755	0.411	0.505	0.384	0.611	0.36	0.481	0.426	0.39	0.522	0.44	0.705	0.714	0.651	0.847	0.683	1.17	0.991	0.802	1.11	0.497
NCI-H1792	0.758	0.525	0.332	0.324	0.215	0.667	0.4	0.286	0.266	0.254	0.753	0.613	0.533	0.552	0.397	0.978	0.879	0.416	0.428	0.284
NCI-H1793	0.499	0.676	0.326	0.407	0.359	0.196	0.197		0.203	0.142	0.293	0.216	0.22	0.266	0.224	0.826	0.882	0.339	0.648	0.304
NCI-H1915	0.788	0.7	0.616	0.728	0.671	0.887	0.818		0.772	0.322	0.665	0.516	0.591	0.476	0.411	1.12	0.961	0.717	1.13	0.979
NCI-H1944	0.598	0.537	0.451	0.525	0.258	0.837	0.707	0.718	0.711	0.533	0.514	0.376	0.366	0.475	0.426	0.975	0.864	0.613	0.932	0.757
NCI-H1975	0.747	0.748	0.549	0.499	0.345	0.249	0.196	0.241	0.199	0.14	0.755	0.58	0.54	0.559	0.457	0.982	0.872	0.478	0.392	0.267
NCI-H1993	0.76	0.881	0.625	0.671	0.493	0.908	0.687	0.749	0.815	0.847	0.481	0.511	0.53	0.537	0.54	0.848	0.691		0.718	0.735
NCI-H2085	1.11	1.07	0.788	1.13	0.66	0.625	0.436	0.339	0.423	0.277	0.745	0.6	0.674	0.602	0.337	0.833	0.747	0.647	0.773	0.633
NCI-H2087	1.55	1.38	0.735	0.794	0.465	0.19	0.17	0.143	0.176	0.141	0.733	0.516	0.58	0.638	0.392	1.16	0.662	0.615	0.924	0.275
NCI-H2126	0.988	0.963	0.673	0.968	0.691	1.01	0.85	0.889	0.795	0.379	0.74	0.64	0.671	0.716	0.58	0.843	0.774	0.695	0.76	0.619
NCI-H2170	0.914	0.982	0.771	0.938	0.393	1.07	0.942	0.223	0.689	0.272	0.732	0.634	0.65	0.428	0.639	0.302	0.263	0.251	0.26	0.266
